Tests used:
[1] = test system: aortic rings; assay: β-amyloid augmentation of phenylephrine (PE) induced contraction of aortic rings; format: cell-based, rat; details: for effect of drug on β-amyloid induced enhancement of PE mediated contraction: β-amyloid 5×10^-7 M, PE 4×10^-8 M, L-NMMA 10^-4 M, indomethacin 10^-5 M, SQ 29548 10^-5 M, catalase 1000 units/ml
Protocol: (§1) Freshly excised rat and porcine blood vessels were placed in Kreb's bicarbonate buffer equilibrated with 5% CO2 in O2. The buffer composition consisted of 118.2 mM NaCl, 4.7 mM KCl, 1.2 mM MgSO4, 2.5 mM CaCl2, 1.2 mM NaH2 PO4, 23 mM NaHCO3 and 11.2 mM glucose. After cleaning the vessels free of fat and other adhering tissues, the vessels were cut into ring segments of approximately 3mm in length. Care was taken not to damage the intimal surface.
(§2) The blood vessel preparations were mounted on stainless steel hooks attached to a force-displacement transducer and equilibrated under the optimum tension of 1.3 g for a period of sixty minutes in a tissue bath (10 ml) containing oxygenated (5% CO2 in O2) Kreb's buffer at 37° C. The buffer was changed every fifteen minutes. After equilibration for sixty minutes the viability of the blood vessel with intact endothelium was established by constricting the blood vessel using phenylephrine ([…]). This dose of phenylephrine elicited 80% of the maximum response. […] The vessel preparations were washed for fifteen minutes before various manipulations as described below.
The procedure was then repeated following incubation of the tissue with 10^-6 M β-amyloid for fifteen minutes (P1). The tissue was then rinsed and contractions repeated twice following fifteen minute incubation (P2 & P3) without further addition of β-amyloid. Arrows are shown for points of addition for P3.
Following a fifteen minute incubation, the preparations were contracted with 10^-7 M phenylephrine (PE) as described earlier. Control contractions with PE alone were carried out in presence of the various test compounds. Values represent the mean ±SEM of four or more experiments. The heat-inactivated SOD was prepared by placing it in boiling water for thirty minutes followed by cooling prior to use. The hydrogen peroxide-inactivated SOD was prepared by exposing SOD to 10 mM H2 O2 for thirty minutes at pH 8.5 and subsequent separation using Microcon filtration system. The amyloid induced PE contraction was blocked by active SOD. Neither albumin or inactivated SOD had any effect on the amyloid activity.
The effect of preincubation of blood vessel with 10^-6 M β-amyloidon contraction induced by phenylephrine (2,4,8, & 16×10^-8 M is shown in Table 1). The maximum contraction in the absence of β-amyloid is taken as 100% and the values obtained following exposure to β-amyloid are expressed as percent of control value. After washing out phenylephrine and acetylcholine of the control contraction, β-amyloid augmented the phenylephrine induced contractions (P1). This effect was blocked by SOD. Washing out the phenylephrine and acetylcholine of the post peptide contraction and repeating the contractions caused further enhancement (P2). Values represent the mean ±SEM of nine or more experiments.
The tissue was then incubated for fifteen minutes with β-amyloid (5×10^-7 M) with or without the drug, followed by contractions with PE. The concentrations compounds used were: L-NMMA, an inhibitor of NO synthase (10^-4 M); indomethacin, an inhibitor of the cyclooxygenase pathway (10^-5 M); SQ 29548, a thromboxane A2 receptor antagonist (10^-5 M); and catalase (1000 units/ml). Values are represented as percentage of the maximal contraction obtained with β-amyloid and PE alone and standardized to remove the intrinsic effects (if any) of each drug on PE contraction alone. The results represent the mean ±SEM of five or more experiments.

[2] = test system: rat coronary arteries; assay: Constriction of rat coronary arteries by β-amyloid peptides and potentiation of U46619 constriction; format: cell-based; details: for coronary artery vasoactivity induced by β-amyloid fragments (real time recording): 10^-6 M β-amyloid peptide
Protocol: The effects of β-amyloid peptide were examined on samples of rat coronary arteries prepared as described above. Referring specifically to FIG. 1, rat coronary arteries were treated with β-amyloid peptide (Aβ40) causing constriction of the coronary arteries.
FIG. 3 illustrates the effect of various amyloid fragments on the constriction of rat coronary arteries. Following control constriction with 10^-7 M U46619, the tissue samples were rinsed, equilibrated with buffer, and treated with 10^-6 M Aβ peptides for fifteen minutes. Following treatment with the Aβ peptides, the blood vessels were rinsed and again exposed to U46619. The values are expressed as percent of control constriction produced by U46619 alone.

[3] = test system: coronary arteries; assay: Acetylcholine induced relaxation of U46619-preconstricted coronary arteries after Aβ40; format: cell-based, rat; details: single dose 10^-6 M Aβ40; 10^-7 M U46619; acetylcholine 10^-9 M to 10^-5 M
Description: The effect of pretreatment of coronary arteries with a single dose (10^-6 M) of Aβ40 on acetylcholine induced relaxation is shown in FIG. 20. The blood vessel was preconstricted with 10^-7 M U46619 and relaxed with increasing doses of acetylcholine (10^-9 M to 10^-5 M).

[4] = test system: blood vessel; assay: Viability and endothelium test of blood vessel rings: phenylephrine constriction, acetylcholine relaxation; format: cell-based, rat; details: vessel with or without endothelium
Protocol: as §1
The endothelium was removed from some preparations by rubbing the inside of the lumen with a metal spatula for six to ten seconds and subsequent rinsing with buffer. The removal of endothelium was confirmed by testing for relaxation to acetylcholine [Furchgott and Zawadzki, 1980].
as §2

catalase
effect of drug on β-amyloid induced enhancement of PE mediated contraction [1]: none of the compounds used (L-NMMA, indomethacin, SQ29548, or catalase) had any significant effect on the enhancement response

CNC(=N)NCCC[C@H](N)C(=O)O [L-NMMA]
effect of drug on β-amyloid induced enhancement of PE mediated contraction [1]: none of the compounds used (L-NMMA, indomethacin, SQ29548, or catalase) had any significant effect on the enhancement response

CCCCC[C@H](O)/C=C/[C@@H]1[C@@H](C/C=C\CCCC(=O)O)[C@H]2CO[C@@H]1C2 [U46619]
effect of the vasoconstrictor on the coronary artery ([2]; U46619 10^-7 M): also caused constriction of the blood vessel

Aβ40: Soluble Aβ containing forty amino acids
effect on vasodilation induced by acetylcholine [3]: significantly reduced the vasodilation induced by acetylcholine
duration of constriction compared among fragments ([2]; 10^-6 M): longest sustained constriction
contraction induced in rat coronary artery ([2]; 10^-6 M Aβ, fifteen minutes): small but detectable contraction
coronary artery vasoactivity induced by β-amyloid fragments (real time recording) [2]: induce constriction of the coronary artery
vasoconstriction induced by U46619 following treatment with Aβ ([2]; U46619 10^-7 M, 10^-6 M Aβ fifteen minutes): significantly potentiated

O=C(O)CCC/C=C\C[C@@H]1[C@H](CNNC(=O)Nc2ccccc2)[C@H]2CC[C@@H]1O2 [SQ29548]
effect of drug on β-amyloid induced enhancement of PE mediated contraction [1]: none of the compounds used (L-NMMA, indomethacin, SQ29548, or catalase) had any significant effect on the enhancement response

COc1ccc2c(c1)c(CC(=O)O)c(C)n2C(=O)c1ccc(Cl)cc1 [indomethacin]
effect of drug on β-amyloid induced enhancement of PE mediated contraction [1]: none of the compounds used (L-NMMA, indomethacin, SQ29548, or catalase) had any significant effect on the enhancement response

Aβ25-35: β-amyloid peptide fragment (GSNKGAIIGLM; Amyloid-beta protein 42; UniProt P05067 696-706, looked up, fragment)
coronary artery vasoactivity induced by β-amyloid fragments (real time recording) [2]: induce constriction of the coronary artery

CNC[C@H](O)c1cccc(O)c1 [phenylephrine]
constriction in response to phenylephrine [4]: constricted in response to phenylephrine with or without endothelium

albumin
effect of test compound on amyloid induced PE contraction (specificity of SOD action) ([1]; preincubation before 10^-6 M β-amyloid, fifteen minutes, 10^-7 M PE (FIG. 12c)): did not protect the blood vessel against the effects of β-amyloid

Source: patent publication US6140309A, “Vasoactive effects and free radical generation by β-amyloid peptides” (University of South Florida, priority 1996, dated 2000)
